# Test system: HuapoAI transgenic mice
# Assay: Evaluation of triglyceride and cholesterol level in HuapoAI transgenic mice
# Type: in vivo
# Conditions: 100 mg/kg oral gavage daily for 7 days; vehicle about 140 to 180 mg/dl
# Procedure: Five to six week old male mice, transgenic for human apoAI [C57B1/6-tgn(apoa1)1rub, Jackson Laboratory, Bar Harbor, Me.] are housed five per cage (10″×20″×8″ with aspen chip bedding) with food (Purina 5001) and water available at all times. After an acclimation period of 2 weeks, animals are individually identified by ear notches, weighed and assigned to groups based on body weight. Beginning the following morning, mice are dosed daily by oral gavage for 7 days using a 20 gauge, 1½″ curved disposable feeding needle. Treatments are test compounds (30 mg/kg), a positive control (fenofibrate, 100 mg/kg) or vehicle [1% carboxymethylcellulose (w/v)/0.25% Tween80 (w/v); 0.2 ml/mouse]. […]
# The animals dosed with vehicle have average triglycerides values of about 60 to 80 mg/dl, which are reduced by the positive control fenofibrate (33-58 mg/dl with a mean reduction of 37%). […] Test compounds evaluated in terms of percent increase in the area under the curve. […]
# Glucose is measured […] by using commercially purchased reagents (Sigma #315-500). […] The absorbance of the dye produced is linearly related to the analyte in the sample. […] Standards (Sigma #339-11, Sigma #16-11, and Sigma #CCO0534 for glucose, triglycerides and total cholesterol, respectively), quality control plasma (Sigma #A2034), and samples (2 or 5 μl/well) are measured in duplicate using 200 μl of reagent. […]
smiles,measurement,value
CC(C)OC(=O)C(C)(C)Oc1ccc(C(=O)c2ccc(Cl)cc2)cc1 [fenofibrate],average total serum cholesterol values,190 to 280 mg/dL

# Source: patent publication US20080207685A1, “Heterocyclic Compounds As Modulators Of Peroxisome Proliferator Activated Receptors, Useful For The Treatment And/Or Prevention Of Disorders Modulated By A Ppar” (Eli Lilly And Company, priority 2003, published 2008)
